Results published in patent US5602134A, “Positive inotropic and lusitropic pyrroloquinolinone derivatives” (Janssen Pharmaceutica N.V., priority 1993, dated 1997).
Counter-ions that a name gives are not always drawn. Like-named read-outs stand apart in the source and are kept apart here.

Tests used:
[1] = molecular target: T1, canine heart phosphodiesterase PDE III (Canis lupus familiaris, UniProt A0A8I3NYE0); assay: Inhibition of Phosphodiesterase Type III (PDE III); format: biochemical; details: 10 min at 37° C., pH 7.1
T1 construct: canine heart phosphodiesterase PDE III; from tissue; host or cells: canine heart
T1 sequence (A0A8I3NYE0 1-1135): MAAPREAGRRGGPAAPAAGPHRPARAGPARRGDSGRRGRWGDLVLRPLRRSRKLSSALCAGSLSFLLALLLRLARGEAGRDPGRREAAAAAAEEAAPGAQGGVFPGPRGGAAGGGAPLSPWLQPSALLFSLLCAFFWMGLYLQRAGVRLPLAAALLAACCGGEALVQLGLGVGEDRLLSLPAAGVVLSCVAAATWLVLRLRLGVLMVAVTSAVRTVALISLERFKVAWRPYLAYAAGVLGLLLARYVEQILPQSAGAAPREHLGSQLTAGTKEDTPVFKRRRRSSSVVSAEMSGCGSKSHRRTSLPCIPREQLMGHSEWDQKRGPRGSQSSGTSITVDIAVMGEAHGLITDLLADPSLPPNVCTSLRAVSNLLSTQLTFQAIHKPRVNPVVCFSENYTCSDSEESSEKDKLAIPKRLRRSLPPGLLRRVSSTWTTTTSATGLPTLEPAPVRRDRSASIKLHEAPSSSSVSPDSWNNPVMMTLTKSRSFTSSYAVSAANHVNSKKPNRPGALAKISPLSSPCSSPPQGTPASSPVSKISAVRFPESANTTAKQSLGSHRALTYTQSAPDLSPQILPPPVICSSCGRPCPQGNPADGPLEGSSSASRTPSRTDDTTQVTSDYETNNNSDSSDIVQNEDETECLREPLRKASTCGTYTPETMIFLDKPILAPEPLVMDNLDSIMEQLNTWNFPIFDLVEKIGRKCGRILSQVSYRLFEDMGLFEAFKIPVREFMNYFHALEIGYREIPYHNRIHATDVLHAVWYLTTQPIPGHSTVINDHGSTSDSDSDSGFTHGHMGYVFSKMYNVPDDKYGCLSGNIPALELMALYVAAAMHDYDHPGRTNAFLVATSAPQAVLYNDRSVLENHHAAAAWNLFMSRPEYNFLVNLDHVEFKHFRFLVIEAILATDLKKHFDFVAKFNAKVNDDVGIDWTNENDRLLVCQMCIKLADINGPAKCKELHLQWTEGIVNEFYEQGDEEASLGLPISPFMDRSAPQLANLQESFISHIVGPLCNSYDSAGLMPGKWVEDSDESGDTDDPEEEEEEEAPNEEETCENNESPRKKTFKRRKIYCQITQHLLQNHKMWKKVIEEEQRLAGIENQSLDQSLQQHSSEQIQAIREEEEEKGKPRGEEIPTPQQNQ
Experimental: The positive inotropic and lusitropic effect of the instant compounds was assessed by an in vitro assay system to detect inhibiting effect on the phosphodiesterase type III and in an in vivo experiment in closed-chest anesthetized dogs by monitoring cardiac and haemodynamic effects of an intravenous bolus injection of the instant compounds. […] Inhibition of Phosphodiesterase Type III (PDE III) […] For every preparation,time- and concentration-dependent changes in cyclic nucleotide hydrolysis were measured. […] The enzymatic activity was started by addition of substrate and stopped 10 min later after the tubes were transferred to a waterbath at 100° C. for 40 sec. After the tubes had been cooled to room temperature, alkaline phosphatase (0.25 g/ml) was added and the mixture was left at 37° C. for 20 min. The mixture was subsequently applied to a 1-ml DEAE-Sephadex A-25 column and washed twice with 3 ml of 20 mM Tris-HCl at pH 7.4. The ^3 H-labeled reaction products in the eluate were quantified by liquid scintillation counting. The inhibiting effect of the present compounds on canine heart phosphodiesterase PDE III was measured at different concentrations of the instant compounds. The IC50 values were calculated graphically from the thus obtained inhibition values.

Beagle dogs = assay: Positive inotropy and lusitropy, blood pressure and heart rate in anaesthetized closed-chest dogs; format: in vivo, Beagle dog; details: Canis lupus familiaris, iv, 5 min, 5 min after i.v. administration, n = 3, relative to premedication values
Experimental: The positive inotropic and lusitropic effect of the instant compounds was assessed by an in vitro assay system to detect inhibiting effect on the phosphodiesterase type III and in an in vivo experiment in closed-chest anesthetized dogs by monitoring cardiac and haemodynamic effects of an intravenous bolus injection of the instant compounds.
Positive Inotropy and Lusitropy, Blood Pressure and Heart Rate in Dogs
The test compound was dissolved in an aqueous glucose solution in a concentration of 1 mg.ml^-1. The experiments were performed on 3 Beagle dogs of either sex and varying age, ranging in body weight from 11 to 18 kg (median 13 kg). The animals were intravenously anaesthetized with a mixture of 0.015 mg.kg^-1 scopolamine and 0.05 mg.kg^-1 lofentanil. The animals were intubated with a cuffed endotracheal tube. Intermittent positive pressure ventilation was performed with a mixture of pressurized air and oxygen (60/40), using a volume-controlled ventilator (Siemens Elema). In the control period the CO2 concentration in the expired air (ET CO2), as determined with a capnograph (Gould Godart), was kept at 5 vol % by adjustment of the respiratory volume (resp. rate=20 breaths.min^-1). A continuous intravenous infusion of 0.5 mg.kg^-1.h^-1 of etomidate was started immediately after induction. Body temperature was monitored with a thermistor positioned in the pulmonary artery. To prevent blood clotting heparin, 1000 IU.kg^-1i.v., was administered.
The electrocardiogram (ECG) was derived from limb leads (standard lead 2). Left ventricular (LVP) and ascending aortic blood pressure (AoP) were measured by retrograde catheterisation via the femoral arteries with high fidelity cathetertip micromanometers (Honeywell). The other femoral vein was cannulated for injection of saline at room temperature into the right atrium and for injection of the test compound. Peak ascending aortic blood flow velocity was measured through the fight carotid artery with an electomagnetic catheter-tip probe connected to a square wave electomagnetic flow meter (Janssen Scientific Instruments). The following variables--inter alia--were calculated on-line, usually at 1 rain intervals: heart rate (HR), diastolic (AoPd) aortic blood pressure, left ventricular end-diastolic pressure (LVEDP), the maximum positive and maximum negative rate of change of isovolumic LVP (LV dp/dtmax and min, respectively), the maximum positive first derivative divided by the actually developed pressure in the left ventricle (LV dp/dtmax /Pd). The time constant (T) of relaxation was measured with the use of an exponential analysis that also estimated the asymptote. After a stabilization period, the animals were treated by intravenous bolus injection of the test compound at 30 min. interval in cumulative doses of 0.0005, 0.001, 0.004, 0.016, 0.064, 0.125 and 0.25 mg/kg.

[2] = read-out: Calculated dose producing a 15% reduction in diastolic aortic blood pressure (AoPD)
[3] = read-out: Calculated dose producing a 15% reduction of total systemic vascular resistance (TSR)
[4] = read-out: Calculated dose producing a 30% increase in cardiac contractility (LV dp/dt max)
[5] = read-out: Calculated dose producing a 30% increase in heart rate (HR)

| SMILES | IC50 [1] | ED15 (Beagle dogs; [2]) | ED15 (Beagle dogs; [3]) | ED30 (Beagle dogs; [4]) | ED30 (Beagle dogs; [5]) |
| --- | --- | --- | --- | --- | --- |
| CCOC(=O)CCCCOc1ccc2nc3c(cc2c1)CC(=O)N3 [Compound 2, ethyl 5-[(2,3-dihydro-2-oxo-1H-pyrrolo[2,3-b]quinolin-6-yl]oxy]pentanoate] | 62 nM | – | – | – | – |
| O=C1Cc2cc3cc(OCCCC(=O)N4CCN(CC5CCCCC5)CC4)ccc3nc2N1 [Compound 16, 1-(cyclohexylmethyl)-4-[4-[(2,3-dihydro-2-oxo-1H-pyrrolo[2,3-b]quinolin-6-yl)oxy]-1-oxobutyl]piperazine dihydrochloride ethanolate(1:1)] | 27 nM | – | – | – | – |
| CN1CCC(N(C)C(=O)CCCOc2ccc3nc4c(cc3c2)CC(=O)N4)CC1 [Compound 8, 4-[(2,3-dihydro-2-oxo-1H-pyrrolo[2,3-b]quinolin-6-yl)oxy]-N-methyl-N-(1-methyl-4-piperidinyl)butanamide] | 300 nM | – | – | – | – |
| CCOC(=O)CCCOc1ccc2nc3c(cc2c1)CC(=O)N3 [Compound 1, ethyl 4-[(2,3-dihydro-2-oxo-1H-pyrrolo[2,3-b]quinolin-6-yl]oxy]butanoate] | 290 nM | – | – | – | – |
| O=C1Cc2cc3cc(OCCCCC(=O)N4CCN(CC5CCCCC5)CC4)ccc3nc2N1 [Compound 6] | 2.4 nM | – | – | – | – |
| O=C1Cc2cc3cc(OCCCCC(=O)NC4CCN(Cc5ccccc5)CC4)ccc3nc2N1 [Compound 7] | 58 nM | – | – | – | – |

The remaining compounds from weak to strong by IC50 [1], led by results:

| IC50 [1] | SMILES | ED15 (Beagle dogs; [2]) | ED15 (Beagle dogs; [3]) | ED30 (Beagle dogs; [4]) | ED30 (Beagle dogs; [5]) |
| --- | --- | --- | --- | --- | --- |
| 330 nM | O=C(O)CCCOc1ccc2nc3c(cc2c1)CC(=O)N3 [Compound 3, 4-[(2,3-dihydro-2-oxo-1H-pyrrolo[2,3-b]quinolin-6-yl)oxy]butanoic acid] | – | – | – | – |
| 18 nM | O=C1Cc2cc3cc(OCCCC(=O)N4CCN(CC5CCCCC5)CC4)ccc3nc2N1 [Compound 5, 1-(cyclohexylmethyl)-4-[4-[(2,3-dihydro-2-oxo-1H-pyrrolo[2,3-b]quinolin-6-yl)oxy]-1-oxobutyl]piperazine] | > 0.25 mg/kg | 0.079 mg/kg | 0.008 mg/kg | 0.033 mg/kg |
| 7.6 nM | CN(C(=O)CCCOc1ccc2nc3c(cc2c1)CC(=O)N3)C1CCCCC1 [Compound 17, N-cyclohexyl-4-[(2,3-dihydro-2-oxo-1H-pyrrolo[2,3-b]quinolin-6-yl)oxy]-N-methylbutanamide hemihydrate] | – | – | – | – |
| 1.8 nM | Cl.O=C1Cc2cc3cc(OCCCCC(=O)N4CCN(CC5CCCCC5)CC4)ccc3nc2N1 [Compound 15, 1-(cyclohexylmethyl)-4-[5-[(2,3-dihydro-2-oxo-1H-pyrrolo[2,3-b]-quinolin-6-yl)oxy]-1-oxopentyl]piperazine monohydrochloride] | 0.015 mg/kg | 0.003 mg/kg | 0.002 mg/kg | 0.028 mg/kg |
